Article PMC10709440, “High-throughput ligand profile characterization in novel cell lines expressing seven heterologous insect olfactory receptors for the detection of volatile plant biomarkers” (Scientific Reports, 2023)
Read-outs that look alike come from different tables or passages of the source.

Tests used:
Drosophila OR13a = molecular target: T1, Drosophila OR13a (Drosophila melanogaster, UniProt Q9VXL0); assay: Calcium ion fluorescence (GCaMP6) assay, OR13a stable HEK293 cell line; format: cell-based; details: for OR13a response (VUAA1-normalized) at 1 μM / OR13a response (VUAA1-normalized) at 10 μM / OR13a response (VUAA1-normalized) at 100 μM: OR13a cell line; for OR13a response (VUAA1-normalized) at 1 μM: VOC concentration 1 μM; for OR13a response (VUAA1-normalized) at 10 μM: VOC concentration 10 μM; for OR13a response (VUAA1-normalized) at 100 μM: VOC concentration 100 μM
T1 construct: expressed in transfected cells
T1 sequence (Q9VXL0 1-418): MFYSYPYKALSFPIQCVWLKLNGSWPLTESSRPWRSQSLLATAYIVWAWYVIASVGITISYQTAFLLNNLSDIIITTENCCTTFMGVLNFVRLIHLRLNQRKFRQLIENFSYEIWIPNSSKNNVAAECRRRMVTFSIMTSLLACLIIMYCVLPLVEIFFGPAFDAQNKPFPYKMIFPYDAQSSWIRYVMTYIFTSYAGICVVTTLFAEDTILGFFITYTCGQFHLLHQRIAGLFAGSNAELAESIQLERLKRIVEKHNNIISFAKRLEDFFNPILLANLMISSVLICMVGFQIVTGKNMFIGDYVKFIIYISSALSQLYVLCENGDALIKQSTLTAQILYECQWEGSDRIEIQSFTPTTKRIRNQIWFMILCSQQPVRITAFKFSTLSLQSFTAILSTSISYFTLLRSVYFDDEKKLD
T1 sequence (Q9VNB5 1-486 partner): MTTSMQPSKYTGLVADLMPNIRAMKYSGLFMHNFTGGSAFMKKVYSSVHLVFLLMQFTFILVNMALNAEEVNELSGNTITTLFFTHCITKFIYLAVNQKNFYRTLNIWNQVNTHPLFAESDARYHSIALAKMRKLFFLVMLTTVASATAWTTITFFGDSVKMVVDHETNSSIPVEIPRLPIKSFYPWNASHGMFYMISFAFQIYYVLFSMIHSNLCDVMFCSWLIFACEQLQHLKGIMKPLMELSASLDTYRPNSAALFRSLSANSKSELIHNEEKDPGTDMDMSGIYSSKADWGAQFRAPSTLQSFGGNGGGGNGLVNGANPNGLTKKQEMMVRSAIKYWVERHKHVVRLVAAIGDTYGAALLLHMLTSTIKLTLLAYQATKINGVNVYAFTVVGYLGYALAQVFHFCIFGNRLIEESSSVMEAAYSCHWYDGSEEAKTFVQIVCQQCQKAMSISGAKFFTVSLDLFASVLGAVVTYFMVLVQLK
Procedure, shortened: (§1)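 Responses are VUAA1-normalized ΔF: each VOC-evoked calcium signal, (FMAX−F0)/F0 over 30 s after injection, divided by the same line's mean 50 µM VUAA1 response. Cells were doxycycline-induced HEK293 with GCaMP6 and the cognate Drosophila OR, in HEPES buffer pH 7.3; ligands tested 0.01–100 μM.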

Drosophila OR71a = molecular target: T2, Drosophila OR71a (Drosophila melanogaster, UniProt Q9VUK5); assay: Calcium ion fluorescence (GCaMP6) assay, OR71a stable HEK293 cell line; format: cell-based; details: for OR71a response (VUAA1-normalized) at 1 μM / OR71a response (VUAA1-normalized) at 10 μM / OR71a response (VUAA1-normalized) at 100 μM / Average response: OR71a cell line; for OR71a response (VUAA1-normalized) at 1 μM: VOC concentration 1 μM; for OR71a response (VUAA1-normalized) at 10 μM: VOC concentration 10 μM; for OR71a response (VUAA1-normalized) at 100 μM: VOC concentration 100 μM; for Average response: VUAA1-normalized response, mean of biological replicates; for activation at 1 µM / activation at 10 µM / activation at 100 µM: HEK293, read-out: OR71a response (VUAA1-normalized response)
T2 construct: expressed in transfected cells
T2 sequence (Q9VUK5 1-378): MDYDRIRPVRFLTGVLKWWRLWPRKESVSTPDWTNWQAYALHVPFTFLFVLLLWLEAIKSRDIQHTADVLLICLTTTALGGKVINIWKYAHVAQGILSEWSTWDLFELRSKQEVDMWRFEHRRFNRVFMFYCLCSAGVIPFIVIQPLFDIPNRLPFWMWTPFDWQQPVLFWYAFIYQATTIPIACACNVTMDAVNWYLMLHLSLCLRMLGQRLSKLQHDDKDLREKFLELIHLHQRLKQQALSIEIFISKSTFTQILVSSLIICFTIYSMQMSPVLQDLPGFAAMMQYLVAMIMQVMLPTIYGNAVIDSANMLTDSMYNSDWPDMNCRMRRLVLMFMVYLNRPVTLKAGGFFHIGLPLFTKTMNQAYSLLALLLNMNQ
T2 sequence (Q9VNB5 1-486 partner): T1 sequence (Q9VNB5 1-486 partner)
Procedure, shortened: as §1

[1] = HEK293, read-out: OR13a Average response (VUAA1-normalized), 1 μM VOC, 50 μM VUAA1 = 1, responses not exceeding 0.05 considered 0
[2] = HEK293, read-out: OR13a Average response (VUAA1-normalized), 10 μM VOC, 50 μM VUAA1 = 1, responses not exceeding 0.05 considered 0
[3] = HEK293, read-out: OR13a Average response (VUAA1-normalized), 100 μM VOC, 50 μM VUAA1 = 1, responses not exceeding 0.05 considered 0
[4] = ligand concentration 1 (unit not given), threshold 0.05, below shown as 0
[5] = ligand concentration 10 (unit not given), threshold 0.05, below shown as 0
[6] = ligand concentration 100 (unit not given), threshold 0.05, below shown as 0
[7] = HEK293, read-out: OR13a response (VUAA1-normalized response), VOC concentration 1 μM
[8] = HEK293, read-out: OR13a response (VUAA1-normalized response), VOC concentration 10 μM
[9] = HEK293, read-out: OR13a response (VUAA1-normalized response), VOC concentration 100 μM
[10] = concentration 1, normalized fluorescence change, values below 0.05 threshold given as 0
[11] = concentration 10, normalized fluorescence change, values below 0.05 threshold given as 0
[12] = concentration 100, normalized fluorescence change, values below 0.05 threshold given as 0

SMILES	activation at 1 µM (Drosophila OR13a; [1]) [%]	activation at 10 µM (Drosophila OR13a; [2]) [%]	activation at 100 µM (Drosophila OR13a; [3]) [%]	OR13a response (VUAA1-normalized) at 1 μM (Drosophila OR13a)	OR13a response (VUAA1-normalized) at 10 μM (Drosophila OR13a)	DF norm AVERAGE OR13a (Drosophila OR13a; [4])	DF norm AVERAGE OR13a (Drosophila OR13a; [5])	DF norm AVERAGE OR13a (Drosophila OR13a; [6])	Average response (Drosophila OR71a; cc. 1 µM)	Average response (Drosophila OR71a; cc. 10 µM)	Average response (Drosophila OR71a; cc. 100 µM)	DF norm AVERAGE OR71a (Drosophila OR71a; [4])	DF norm AVERAGE OR71a (Drosophila OR71a; [5])	DF norm AVERAGE OR71a (Drosophila OR71a; [6])	activation at 1 µM (Drosophila OR13a; [7]) [%]	activation at 10 µM (Drosophila OR13a; [8]) [%]	activation at 100 µM (Drosophila OR13a; [9]) [%]	activation at 1 µM (Drosophila OR71a) [%]	activation at 10 µM (Drosophila OR71a) [%]	activation at 100 µM (Drosophila OR71a) [%]	also measured
CCCCCCCCC=O [nonanal]	0	0	0	0.00	0.00	0	0	0	0.00	0.00	0.00	0	0	0	–	–	–	–	–	–	OR13a response (VUAA1-normalized) at 100 μM (Drosophila OR13a): 0.00; OR71a response (VUAA1-normalized) at 1 μM (Drosophila OR71a): 0.00; OR71a response (VUAA1-normalized) at 10 μM (Drosophila OR71a): 0.00; OR71a response (VUAA1-normalized) at 100 μM (Drosophila OR71a): 0.00
CC1=CC[C@@H](C(C)(C)O)CC1 [alpha-terpineol]	3.36	0	0	–	–	0	0	0	0.00	0.00	0.04	0	0	0	0	0	0	0	0	0	–
CCOC(=O)CC [ethyl propionate]	0	0	0	–	–	0	0	0	0.0185	0.00	0.00	0	0	0	0	0	0	0	0	0	–
O=Cc1ccccc1 [benzaldehyde]	0	8	5	–	–	0	0.07623	0	0.03	0.00	0.00	0	0	0	0	8	0	0	0	0	–
CCCCCC(O)CC (stereo not drawn) [3-octanol]	0	0	12	–	–	–	–	–	0.0215	0.00	0.00	–	–	–	0	0	12	0	0	0	DF norm AVERAGE OR13a (Drosophila OR13a; [10]): 0; DF norm AVERAGE OR13a (Drosophila OR13a; [11]): 0; DF norm AVERAGE OR13a (Drosophila OR13a; [12]): 0.1167; DF norm AVERAGE OR71a (Drosophila OR71a; [10]): 0; DF norm AVERAGE OR71a (Drosophila OR71a; [11]): 0; DF norm AVERAGE OR71a (Drosophila OR71a; [12]): 0
Cc1ccc(C)cc1 [p-xylene]	0	0	2.5	0.00	0.00	0	0	0	0.00	0.06	0.00	0	0.0615	0	–	–	–	–	–	–	OR13a response (VUAA1-normalized) at 100 μM (Drosophila OR13a): 0.00; OR71a response (VUAA1-normalized) at 1 μM (Drosophila OR71a): 0.00; OR71a response (VUAA1-normalized) at 10 μM (Drosophila OR71a): 0.06; OR71a response (VUAA1-normalized) at 100 μM (Drosophila OR71a): 0.00
